Reference: patent US20260248774A1, “INHIBITORS OF BACTERIAL TYPE III SECRETION SYSTEM” (MICROBIOTIX, INC., priority 2022, published 2026)

Experiments:
CYP450 3A4 = CYP450 3A4 (Homo sapiens, UniProt P08684); assay: Cytochrome P450 inhibition, CYP3A4 (Eurofins Panlabs panel); type: in vitro ADME; details: assayed at 10 μM
Description: (§1) Cytochrome P450 Inhibition.
(§2) Assessment of off-target effects of priority compounds. To assess potential off-target effects, we will evaluate prioritized hits validated by in vivo testing in the Eurofins Panlabs HitProfilingScreen+CYP450 assay panel, which is performed by Eurofins as a fee for service. The assay panel of consists of assays for 30 receptors and transporters plus the five major CYP450 enzymes (1A2, 2C19, 2C9, 2D6, 3A4).

CYP450 1A2 = CYP450 1A2 (Homo sapiens, UniProt P05177); assay: Cytochrome P450 inhibition, CYP1A2 (Eurofins Panlabs panel); type: in vitro ADME; details: assayed at 10 μM
Description: as §1, §2

[1] = tested on: panel of human cytochrome P450s (1A2, 2C19, 2C9, 2D6, 3A4), receptors, transporters and ion channels; assay: in vitro
[2] = biological target: panel of human cytochrome P450s, receptors, and ion channels (Homo sapiens, UniProt Q99720); details: assayed at 10 μM
[3] = tested on: panel of human cytochrome P450s, receptors, and ion channels
[4] = biological target: panel of human cytochrome P450s, receptors, and ion channels (Homo sapiens, UniProt P08172); details: assayed at 10 μM
[5] = biological target: panel of human cytochrome P450s, receptors, and ion channels (Homo sapiens, UniProt P35408); details: assayed at 10 μM
[6] = biological target: panel of human cytochrome P450s, receptors, and ion channels (Rattus norvegicus, UniProt P15823); details: assayed at 10 μM
[7] = biological target: panel of human cytochrome P450s, receptors, and ion channels (Homo sapiens, UniProt P07550); details: assayed at 10 μM
[8] = biological target: panel of human cytochrome P450s, receptors, and ion channels (Homo sapiens, UniProt P35372); details: assayed at 10 μM
[9] = biological target: panel of human cytochrome P450s, receptors, and ion channels (Homo sapiens, UniProt P30542); details: assayed at 10 μM
[10] = biological target: panel of human cytochrome P450s, receptors, and ion channels (Homo sapiens, UniProt P23975); details: assayed at 10 μM
[11] = biological target: panel of human cytochrome P450s, receptors, and ion channels (Homo sapiens, UniProt P02708); details: assayed at 10 μM
[12] = biological target: panel of human cytochrome P450s, receptors, and ion channels (Homo sapiens, UniProt P29274); details: assayed at 10 μM
[13] = biological target: panel of human cytochrome P450s, receptors, and ion channels (Homo sapiens, UniProt P21554); details: assayed at 10 μM
[14] = biological target: panel of human cytochrome P450s, receptors, and ion channels (Rattus norvegicus, UniProt P43140); details: assayed at 10 μM
[15] = biological target: panel of human cytochrome P450s, receptors, and ion channels (Homo sapiens, UniProt P14416); details: assayed at 10 μM
[16] = biological target: panel of human cytochrome P450s, receptors, and ion channels (Homo sapiens, UniProt P08588); details: assayed at 10 μM
[17] = biological target: panel of human cytochrome P450s, receptors, and ion channels (Homo sapiens, UniProt P20309); details: assayed at 10 μM
[18] = biological target: panel of human cytochrome P450s, receptors, and ion channels (Homo sapiens, UniProt P35367); details: assayed at 10 μM
[19] = biological target: panel of human cytochrome P450s, receptors, and ion channels (Homo sapiens, UniProt P08913); details: assayed at 10 μM
[20] = biological target: panel of human cytochrome P450s, receptors, and ion channels (Homo sapiens, UniProt P41595); details: assayed at 10 μM
[21] = biological target: panel of human cytochrome P450s, receptors, and ion channels (Homo sapiens, UniProt P21728); details: assayed at 10 μM
[22] = Mammalian cytotoxicity (CC50), MTS conversion; type: cell-based, human; details: human, HeLa cells, Table 1; HeLa; read-out: Cytotox-HeLa CC50
Description: Determination of Mammalian Cytotoxicity.
Following incubation for 3 days at 37° C. in VP-SFM, cell viability was measured with the vital tetrazolium salt stain 3-(4,5-dimethylthiazol-2-yl)-2,5 diphenyltetrazolium bromide according to the manufacturer's instructions (Promega, Madison, Wisconsin). Values were determined in triplicate using dilutions of inhibitory compound from 100 μM to 0.2 μM.

CYP450 2D6 = CYP450 2D6 (Homo sapiens, UniProt P10635); assay: Cytochrome P450 inhibition, CYP2D6 (Eurofins Panlabs panel); type: in vitro ADME; details: assayed at 10 μM
Description: as §1, §2

[23] = tested on: T3SS-mediated translocation of ExoU by P. aeruginosa strain MDM1561 (PA99U) into CHO cells; assay: P. aeruginosa ExoU-dependent CHO cell killing assay for T3SS-mediated translocation; type: cell-based, Pseudomonas aeruginosa; details: read-out: Translocation EC50; Table 1
From the text: P. aeruginosa ExoU-Dependent CHO Cell Killing.

hERG = hERG (Homo sapiens, UniProt Q12809); assay: hERG inhibition
CYP450 2C9 = CYP450 2C9 (Homo sapiens, UniProt P11712); assay: Cytochrome P450 inhibition, CYP2C9 (Eurofins Panlabs panel); type: in vitro ADME; details: assayed at 10 μM
Description: as §1, §2

Sequence of hERG (Q12809 whole entry): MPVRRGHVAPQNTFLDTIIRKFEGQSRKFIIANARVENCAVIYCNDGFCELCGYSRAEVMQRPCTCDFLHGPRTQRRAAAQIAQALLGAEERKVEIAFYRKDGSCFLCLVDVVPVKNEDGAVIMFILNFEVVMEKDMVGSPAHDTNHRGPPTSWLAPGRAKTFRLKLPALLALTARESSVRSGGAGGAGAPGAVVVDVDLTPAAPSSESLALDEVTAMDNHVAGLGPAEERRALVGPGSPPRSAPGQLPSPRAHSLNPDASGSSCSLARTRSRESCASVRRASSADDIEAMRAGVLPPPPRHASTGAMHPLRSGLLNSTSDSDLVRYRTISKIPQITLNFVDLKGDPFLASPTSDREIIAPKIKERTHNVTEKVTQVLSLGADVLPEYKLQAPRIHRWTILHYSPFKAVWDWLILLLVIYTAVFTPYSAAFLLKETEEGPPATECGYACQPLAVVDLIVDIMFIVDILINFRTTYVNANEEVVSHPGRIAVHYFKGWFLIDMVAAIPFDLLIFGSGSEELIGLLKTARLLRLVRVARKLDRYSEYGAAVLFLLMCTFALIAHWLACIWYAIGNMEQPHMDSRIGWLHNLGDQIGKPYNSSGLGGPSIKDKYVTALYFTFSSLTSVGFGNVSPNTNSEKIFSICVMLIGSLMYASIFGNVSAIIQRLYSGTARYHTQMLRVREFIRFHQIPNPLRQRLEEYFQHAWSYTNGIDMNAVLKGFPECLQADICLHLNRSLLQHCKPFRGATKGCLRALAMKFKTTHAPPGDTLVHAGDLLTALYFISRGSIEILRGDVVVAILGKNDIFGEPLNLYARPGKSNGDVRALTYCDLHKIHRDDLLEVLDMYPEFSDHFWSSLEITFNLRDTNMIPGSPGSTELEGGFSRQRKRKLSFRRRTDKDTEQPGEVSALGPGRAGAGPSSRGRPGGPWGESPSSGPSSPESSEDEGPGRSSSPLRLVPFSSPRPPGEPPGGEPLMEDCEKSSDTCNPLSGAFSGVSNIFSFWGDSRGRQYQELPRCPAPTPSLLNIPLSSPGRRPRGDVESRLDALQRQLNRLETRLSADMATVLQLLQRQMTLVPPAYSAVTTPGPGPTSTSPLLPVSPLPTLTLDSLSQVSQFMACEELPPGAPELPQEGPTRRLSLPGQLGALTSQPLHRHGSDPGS
Sequence of panel of human cytochrome P450s, receptors, and ion channels (Homo sapiens, UniProt Q99720) (Q99720 whole entry): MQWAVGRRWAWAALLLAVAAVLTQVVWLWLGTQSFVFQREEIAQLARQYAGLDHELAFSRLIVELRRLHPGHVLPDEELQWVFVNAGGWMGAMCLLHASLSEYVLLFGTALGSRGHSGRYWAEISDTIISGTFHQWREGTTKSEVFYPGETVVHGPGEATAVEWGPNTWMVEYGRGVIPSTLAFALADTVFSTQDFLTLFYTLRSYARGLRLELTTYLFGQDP
Sequence of panel of human cytochrome P450s, receptors, and ion channels (Homo sapiens, UniProt P08913) (P08913 whole entry): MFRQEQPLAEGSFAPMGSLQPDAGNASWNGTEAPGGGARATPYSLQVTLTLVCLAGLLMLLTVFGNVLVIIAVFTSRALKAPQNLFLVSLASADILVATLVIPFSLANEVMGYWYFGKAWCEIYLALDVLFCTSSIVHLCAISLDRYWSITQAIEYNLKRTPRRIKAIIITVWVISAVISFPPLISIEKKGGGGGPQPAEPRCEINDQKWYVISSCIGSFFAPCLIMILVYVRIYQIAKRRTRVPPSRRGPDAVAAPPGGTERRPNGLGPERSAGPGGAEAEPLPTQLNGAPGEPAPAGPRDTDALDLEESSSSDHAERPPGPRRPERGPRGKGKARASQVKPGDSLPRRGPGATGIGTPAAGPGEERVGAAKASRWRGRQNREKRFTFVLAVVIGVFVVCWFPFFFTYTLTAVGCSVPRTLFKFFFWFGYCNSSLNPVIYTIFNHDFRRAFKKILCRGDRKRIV
Sequence of panel of human cytochrome P450s, receptors, and ion channels (Homo sapiens, UniProt P02708) (P02708 21-457): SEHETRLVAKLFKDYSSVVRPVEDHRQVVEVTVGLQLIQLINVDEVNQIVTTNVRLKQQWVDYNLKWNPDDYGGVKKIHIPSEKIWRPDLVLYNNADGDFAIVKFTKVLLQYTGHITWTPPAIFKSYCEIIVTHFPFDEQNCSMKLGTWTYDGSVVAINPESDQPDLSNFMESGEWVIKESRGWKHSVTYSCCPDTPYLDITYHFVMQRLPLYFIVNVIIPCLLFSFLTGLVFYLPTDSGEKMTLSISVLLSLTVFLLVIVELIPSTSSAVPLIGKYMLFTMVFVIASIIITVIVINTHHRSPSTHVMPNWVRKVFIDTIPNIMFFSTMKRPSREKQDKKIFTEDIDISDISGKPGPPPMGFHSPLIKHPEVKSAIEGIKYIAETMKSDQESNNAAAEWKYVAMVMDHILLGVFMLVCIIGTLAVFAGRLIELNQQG
Sequence of panel of human cytochrome P450s, receptors, and ion channels (Homo sapiens, UniProt P14416) (P14416 whole entry): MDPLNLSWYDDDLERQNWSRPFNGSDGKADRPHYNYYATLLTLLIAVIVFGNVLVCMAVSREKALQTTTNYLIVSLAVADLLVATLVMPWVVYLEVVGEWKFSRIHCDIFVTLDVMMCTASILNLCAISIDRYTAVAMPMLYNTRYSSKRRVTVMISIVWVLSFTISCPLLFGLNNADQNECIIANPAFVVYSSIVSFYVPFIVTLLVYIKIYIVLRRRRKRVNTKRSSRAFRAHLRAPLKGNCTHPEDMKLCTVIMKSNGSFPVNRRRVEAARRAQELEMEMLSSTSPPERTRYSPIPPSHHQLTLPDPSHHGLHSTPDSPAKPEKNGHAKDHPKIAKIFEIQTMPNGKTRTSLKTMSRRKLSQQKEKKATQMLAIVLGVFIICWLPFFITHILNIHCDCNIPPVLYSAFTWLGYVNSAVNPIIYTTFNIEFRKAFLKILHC
Sequence of panel of human cytochrome P450s, receptors, and ion channels (Homo sapiens, UniProt P21554) (P21554 whole entry): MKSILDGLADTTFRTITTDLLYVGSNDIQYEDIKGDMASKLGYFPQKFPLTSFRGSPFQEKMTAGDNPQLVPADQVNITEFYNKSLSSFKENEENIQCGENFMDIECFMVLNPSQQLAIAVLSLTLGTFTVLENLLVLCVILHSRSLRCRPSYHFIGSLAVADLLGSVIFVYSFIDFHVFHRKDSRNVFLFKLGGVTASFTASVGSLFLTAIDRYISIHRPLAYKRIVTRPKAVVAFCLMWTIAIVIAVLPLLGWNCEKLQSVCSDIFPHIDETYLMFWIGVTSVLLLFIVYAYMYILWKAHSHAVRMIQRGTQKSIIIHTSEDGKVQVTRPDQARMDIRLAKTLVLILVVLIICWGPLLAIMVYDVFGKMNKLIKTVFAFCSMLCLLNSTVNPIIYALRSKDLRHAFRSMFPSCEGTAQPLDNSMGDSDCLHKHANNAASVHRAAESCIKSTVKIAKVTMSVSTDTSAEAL
Sequence of panel of human cytochrome P450s, receptors, and ion channels (Homo sapiens, UniProt P21728) (P21728 whole entry): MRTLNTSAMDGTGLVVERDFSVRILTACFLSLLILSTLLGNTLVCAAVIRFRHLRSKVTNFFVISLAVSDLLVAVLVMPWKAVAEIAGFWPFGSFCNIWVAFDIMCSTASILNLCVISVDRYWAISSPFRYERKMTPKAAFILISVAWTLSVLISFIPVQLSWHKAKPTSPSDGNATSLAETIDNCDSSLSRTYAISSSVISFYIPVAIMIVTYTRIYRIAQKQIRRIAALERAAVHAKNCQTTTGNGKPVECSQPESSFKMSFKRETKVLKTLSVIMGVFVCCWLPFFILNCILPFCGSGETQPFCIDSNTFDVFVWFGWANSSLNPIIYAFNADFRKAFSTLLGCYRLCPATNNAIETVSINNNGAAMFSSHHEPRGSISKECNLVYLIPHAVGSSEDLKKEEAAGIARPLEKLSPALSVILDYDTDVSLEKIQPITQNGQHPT
Sequence of panel of human cytochrome P450s, receptors, and ion channels (Homo sapiens, UniProt P07550) (P07550 whole entry): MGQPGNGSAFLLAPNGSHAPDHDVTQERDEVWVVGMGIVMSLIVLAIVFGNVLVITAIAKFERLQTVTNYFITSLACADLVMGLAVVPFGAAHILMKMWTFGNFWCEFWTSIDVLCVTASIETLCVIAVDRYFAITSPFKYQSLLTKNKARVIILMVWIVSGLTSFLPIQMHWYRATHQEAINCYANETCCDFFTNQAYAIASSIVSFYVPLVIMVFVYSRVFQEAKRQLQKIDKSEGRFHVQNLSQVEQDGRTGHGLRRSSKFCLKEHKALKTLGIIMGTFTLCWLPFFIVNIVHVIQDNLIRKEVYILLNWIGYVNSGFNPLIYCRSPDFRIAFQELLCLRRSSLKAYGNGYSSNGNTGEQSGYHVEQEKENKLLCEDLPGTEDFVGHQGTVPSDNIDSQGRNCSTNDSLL
Sequence of CYP450 1A2 (P05177 whole entry): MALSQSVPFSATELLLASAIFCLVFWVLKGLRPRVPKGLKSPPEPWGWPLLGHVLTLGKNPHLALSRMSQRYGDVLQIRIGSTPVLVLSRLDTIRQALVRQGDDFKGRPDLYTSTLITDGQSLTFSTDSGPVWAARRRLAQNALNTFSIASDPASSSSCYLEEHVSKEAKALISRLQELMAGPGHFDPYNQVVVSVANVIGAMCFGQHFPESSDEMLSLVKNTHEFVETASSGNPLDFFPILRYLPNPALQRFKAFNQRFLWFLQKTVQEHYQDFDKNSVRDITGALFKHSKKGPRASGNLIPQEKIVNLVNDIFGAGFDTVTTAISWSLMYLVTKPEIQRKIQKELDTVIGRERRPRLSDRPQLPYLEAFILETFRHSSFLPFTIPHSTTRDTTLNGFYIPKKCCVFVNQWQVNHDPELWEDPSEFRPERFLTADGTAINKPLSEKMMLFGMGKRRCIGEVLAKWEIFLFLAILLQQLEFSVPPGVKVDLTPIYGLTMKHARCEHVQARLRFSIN
Sequence of panel of human cytochrome P450s, receptors, and ion channels (Homo sapiens, UniProt P30542) (P30542 whole entry): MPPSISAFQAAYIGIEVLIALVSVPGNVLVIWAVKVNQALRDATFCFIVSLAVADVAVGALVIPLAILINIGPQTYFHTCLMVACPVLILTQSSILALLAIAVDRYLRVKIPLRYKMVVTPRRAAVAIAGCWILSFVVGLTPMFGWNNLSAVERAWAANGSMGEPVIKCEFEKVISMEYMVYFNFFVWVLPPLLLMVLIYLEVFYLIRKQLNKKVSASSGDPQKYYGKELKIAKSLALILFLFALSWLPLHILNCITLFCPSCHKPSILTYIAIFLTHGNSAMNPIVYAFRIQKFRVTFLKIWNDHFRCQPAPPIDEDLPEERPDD

## CCC(Oc1ccc(Cl)c(Cl)c1Cl)C(=O)NCc1ccc(F)cc1 (stereo not drawn) [MBX-4532]
CYP450 3A4
  CYP450, 3A4: 13
CYP450 1A2
  CYP450, 1A2: 24
[1]
  inhibition at 10 µM: > 50%
[2]
  Sigma σ1: 70
[3]; assayed at 10 μM
  Calcium Channel L-Type, Dihydropyridine: 56
  GABAA, Flunitrazepam, Central: −1
  GABAA, Muscimol, Central: 2
  Glutamate, NMDA, Phencyclidine: 29
  Imidazoline I2, Central: 27
  Nicotinic Acetylcholine αβ4: 7
  Phorbol Ester: 5
  Potassium Channel [KATP]: 0
  Rolipram: 23
  Sodium Channel, Site 2: 39
[3]; assessment in text
  specificity vs mammalian receptors and enzymes, including hERG: not specific enough
[4]
  Muscarinic M2: 23
[5]
  Prostanoid EP4: −6
[6]
  Adrenergic α1B: 6
[7]
  Adrenergic β2: 14
[8]
  Opiate μ (OP3, MOP): 26
[9]
  Adenosine A1: 15
[10]
  Transporter, Norepinephrine (NET): 61
[11]
  Nicotinic Acetylcholine α1, Bungarotoxin: −17
[12]
  Adenosine A2A: 10
[13]
  Cannabinoid CB1: 16
[14]
  Adrenergic α1A: 12
[15]
  Dopamine D2S: 11
[16]
  Adrenergic β1: 2
[17]
  Muscarinic M3: 8
[18]
  Histamine H1: 23
[19]
  Adrenergic α2A: 23
[20]
  Serotonin (5-Hydroxytryptamine) 5-HT2B: 59
[21]
  Dopamine D1: 0
[22]
  CC50 at 3 days: > 200 µM
CYP450 2D6
  CYP450, 2D6: 0
[23]
  EC50: 1.7 µM
hERG; Table 1, read-out: hERG INH IC50
  IC50: > 100 µM
hERG; assayed at 10 μM
  Potassium Channel hERG: 26
CYP450 2C9
  CYP450, 2C9: −30
